From patent EP0263506B1, “Anticonvulsant composition containing amino acid derivative and use of said amino acid derivative” (priority 1986, dated 1988)
Where two headings read alike, the source gives them in different places. Marks after values point to notes of the source that are not given here.

Columns and labels:
[1] = test system: Maximal electroshock seizures (MES); assay: Maximal electroshock seizure test (MES); type: in vivo, mice; conditions: Mus musculus, read-out: MES ED50
Experimental: (§1) in the eye prior to application of the electrodes so as to prevent the death of the animal. Protection in this test was defined as the abolition of the hind limb tonic extension component of the seizure. The Subcutaneous Pentylenetetrazole (Metrazol^R) Seizure Threshold Test (sc Met) entailed the administration of 85 mg/kg of pentylenetetrazole as a 0.5% solution subcutaneously in the posterior midline. […] Protection was defined as the failure to observe even a threshold seizure (a single episode of clonic spasms of at least 5 sec duration). The effects of the compounds on forced and spontaneous motor activity were evaluated in mice using the Rotorod Test (Tox) or, in some cases, as indicated herein, a horizontal screen assay (HS). The animal was placed on a one-inch diameter knurled plastic rod rotating at 6 rpm after the administration of the drug. Normal mice can remain on a rod rotating at this speed indefinitely. Neurologic toxicity was defined as the failure of the animal to remain on the rod for one minute. The MES and so Met Tests were conducted on single animals while four mice were utilized for the Tox Test. The dose effect behavior of the compounds was evaluated using the above-described procedures by the administration of varying dose levels, treating normally eight mice at each dose. Table I includes an evaluation of the Median Effective Dose (ED50) and the Median Toxic Dose (TD50) of representative compounds. Mice were tested with varying doses of the anticonvulsant to define the limits of complete protection (or toxicity) and no protection (or no toxicity), as well as three points in between these limits. The Median Effective Dose (ED50) was defined as the dose which produced the Pharmacology. […] N-Acetyl-D,L-alanine-N'-benzylamide was tested at […] as well. […] Maximal electroshock seizures (MES) were elicited with a 60 cycle alternating current of 50 mA intensity (5-7 times that necessary to elicit minimal electroschock seizures) delivered for 0.2 sec via corneal electrodes. A drop of 0.9% saline was instilled desired endpoint in 50% of the animals. The Median Toxicity Dose (TD50) was the dose which elicited evidence of minimal neurological toxicity in 50% of the animals.

[2] = Horizontal screen assay (HS), neurologic toxicity; type: in vivo; conditions: mouse; mice; Median Toxic Dose; evaluated using a horizontal screen assay (HS) as opposed to the Rotorod Test; read-out: Tox TD50
Experimental: as §1
The TD50 of D,L-α-acetamido-N-benzyl-3-thiopheneacetamide, D,L-α-acetamido-N-benzyl-2-thiopheneacetamide, D,L-α-acetamido-N-benzyl-2-furanacetamide, D,L-α-acetamido-N-benzyl-2-pyrroleacetamide, D,L-2-acetamido-N-benzyl-2-ethoxyacetamide and D,L-2-acetamido-N-benzyl-2-methoxyacetamide were evaluated using a horizontal screen assay (HS) as opposed to the Rotorod Test.

pentylenetetrazole = assay: Subcutaneous Pentylenetetrazole (Metrazol) Seizure Threshold Test (sc Met); type: in vivo, mice; conditions: for ED50: Mus musculus, sc, 0.5 h, read-out: sc Met ED50
Experimental: as §1

[3] = test system: male Carworth Farms #1 mice; assay: Rotorod Test (Tox), neurologic toxicity; type: in vivo; conditions: Median Toxic Dose, comparison drugs
Experimental: The effects of the compounds on forced and spontaneous motor activity were evaluated in mice using the Rotorod Test (Tox) or, in some cases, as indicated herein, a horizontal screen assay (HS). The animal was placed on a one-inch diameter knurled plastic rod rotating at 6 rpm after the administration of the drug. Normal mice can remain on a rod rotating at this speed indefinitely. Neurologic toxicity was defined as the failure of the animal to remain on the rod for one minute. The MES and so Met Tests were conducted on single animals while four mice were utilized for the Tox Test. The dose effect behavior of the compounds was evaluated using the above-described procedures by the administration of varying dose levels, treating normally eight mice at each dose. […] Mice were tested with varying doses of the anticonvulsant to define the limits of complete protection (or toxicity) and no protection (or no toxicity), as well as three points in between these limits. […] The Median Toxicity Dose (TD50) was the dose which elicited evidence of minimal neurological toxicity in 50% of the animals.

[4] = mice, 50 mA, 60 cycle, 0.2 sec via corneal electrodes, abolition of hind limb tonic extension
[5] = mice, 85 mg/kg pentylenetetrazole subcutaneously, observed for 30 minutes

Row | Structure (SMILES) | ED50 [1] [mg/kg] | TD50 [2] [mg/kg] | ED50 [1, 4] [mg/kg] | other results
1 | CCOC(NC(C)=O)C(=O)NCc1ccccc1 (racemic) [D,L-2-Acetamido-N-benzyl-2-ethoxyacetamide] | 62 | > 112 |  | 
2 | COC(NC(C)=O)C(=O)NCc1ccccc1 (racemic) [D,L-2-Acetamido-N-benzyl-2-methoxyacetamide] | 98.3 | < 300 |  | 
3 | CC(=O)NC(C(=O)NCc1ccccc1)c1ccco1 (racemic) [D,L-α-Acetamido-N-benzyl-2-furanacetamide] | 10.3 | 40 |  | 
4 | CC(=O)NC(C(=O)NCc1ccccc1)c1ccc[nH]1 (racemic) [D,L-α-Acetamido-N-benzyl-2-pyrroleacetamide] | 16.1 | < 100 |  | 
5 | CC(=O)NC(C(=O)NCc1ccccc1)c1cccs1 (racemic) [D,L-α-Acetamido-N-benzyl-2-thiopheneacetamide] | 44.8 | 30 to 100 |  | 
6 | CC(=O)NC(C(=O)NCc1ccccc1)c1ccsc1 (racemic) [D,L-α-Acetamido-N-benzyl-3-thiopheneacetamide] | 87.8 | > 100 |  | 
7 | CCC1(c2ccccc2)NC(=O)N(C)C1=O (stereo not shown) [mephenytoin] |  |  | 61 | ED50 (pentylenetetrazole; [5]): 31 mg/kg; Tox TD50 [3]: 154 mg/kg
8 | NC(=O)NC(=O)Cc1ccccc1 [phenacemide] |  |  | 87 | ED50 (pentylenetetrazole; [5]): 116 mg/kg; Tox TD50 [3]: 421 (337-549)* mg/kg
9 | CCC1(c2ccccc2)C(=O)NC(=O)NC1=O [phenobarbital, reference compound] | 22 |  |  | ED50 (pentylenetetrazole): 13 mg/kg
10 | O=C1NC(=O)C(c2ccccc2)(c2ccccc2)N1 [phenytoin, reference compound] |  |  | 10 | sc Met ED50 (pentylenetetrazole; [5]): not effective
